Seven compounds from US9048628B2, “Solid-state dye laser medium and process for production thereof” (KYUSHU UNIVERSITY, NATIONAL UNIVERSITY CORPORATION, priority 2011, dated 2015) can be followed below.

Data set [1] can be described thus: Maximum concentration soluble in polydimethylsiloxane (PDMS) when silicone oil was used. The following applies: silicone oil used as in Example 2. The class given is physicochemical. An excerpt: A DFB laser was produced in the same manner as in Example 1, except that a silicone oil (KF-1065, produced by Shin-Etsu Chemical Co., Ltd.) was used instead of toluene, and that the step of removing toluene was not performed.
(§1) Using the dyes indicated below, maximum concentrations at which they were soluble in polydimethylsiloxane (PDMS) were investigated in the same manners as in Examples 1 and 2.

Data set [2] is described as follows: Maximum concentration soluble in polydimethylsiloxane (PDMS) when toluene was used. The class given is physicochemical. The method, then: Pyrromethene 597 (PM597, produced by Exciton) as a dye was dissolved in toluene to prepare a solution of a saturated concentration (100 to 130 mmol/L). This dye solution was mixed at a mixing ratio of […] (volume ratio) with a dimethylsiloxane oligomer (SIM-360, produced by Shin-Etsu Chemical Co., Ltd.) being a polydimethylsiloxane precursor, and the mixture was stirred for 2 days for thorough uniform dispersing. Then, the dispersion was further heated at 72° C. to evaporate toluene, thus adjusting the system to a final dye concentration of 3 mmol/L.
as §1

The mark [3] stands for this setting: dye unchanged, without silicone oil.

For `CCN=c1cc2oc3cc(NCC)c(C)cc3c(-c3ccccc3C(=O)OCC)c-2cc1C.Cl` [Rh6G], the “Behavior of dissolution in PDMS when silicone oil was used: State” value (shortened to “Behavior … when silicone oil was used: State”) in data set [1] is “lumpy→”.

For the compound `CC1=C(C(C)(C)C)C(C)=[N+]2C1=C(C)c1c(C)c(C(C)(C)C)c(C)n1[B-]2(F)F` [PM597], the “Behavior … when silicone oil was used: State” value in data set [1] is “dissolved”. Further, the “Highest concentration dissolving in dimethylsiloxane” value in data set [2] (setting [3]) is reported as 3 mmol/L. Besides, the “Behavior of dissolution in PDMS when toluene was used: State” value in data set [2] (toluene used as in Example 1) was “dissolved”.

In the case of `CCC1=C(C)C2=C(COC(C)=O)c3c(C)c(CC)c(C)n3[B-](F)(F)[N+]2=C1C` [PM605], the “Behavior … when silicone oil was used: State” value in data set [1] is “dissolved”.

As to `CC1=C(C)C(C)=[N+]2C1=C(C#N)c1c(C)c(C)c(C)n1[B-]2(F)F` [PM650], the “Behavior … when silicone oil was used: State” value in data set [1] is reported as “dissolved”. Also, the “Dissolution in dimethylsiloxane (in words)” value in data set [2] (setting [3]) is recorded as “poses difficulty in dissolving to a lower limit concentration at which laser oscillation becomes possible”.

In the case of `CCCCC1=C(C)C2=C(C)c3c(C)c(CCCC)c(C)n3[B-](F)(F)[N+]2=C1C` [PM580], the “Behavior … when silicone oil was used: State” value in data set [1] was “lumpy→”.

Regarding `CCC1=C(C)C2=C(C)c3c(C)c(CC)c(C)n3[B-](F)(F)[N+]2=C1C` [PM567], the “Behavior … when silicone oil was used: State” value in data set [1] is “dissolved”.

On to `CC1=C(S(=O)(=O)[O-])C(C)=[N+]2C1=C(C)c1c(C)c(S(=O)(=O)[O-])c(C)n1[B-]2(F)F.[Na+].[Na+]` [PM556], for which, in data set [1], the “Behavior … when silicone oil was used: State” value was “dispersed”.
